Measurements reported in publication PMC10354055, “An optimized Nurr1 agonist provides disease-modifying effects in Parkinson’s disease models” (Nature Communications, 2023).
Values joined by “and” are separate entries in the source; they are usually repeats but may differ in a detail not shown here. Equal values may be shown once.

Key:
[1] = molecular target: T1, Nurr1-LBD (Mus musculus, UniProt Q06219); assay: Luciferase reporter assay, Nurr1-LBD, SK-N-BE(2)C cells; type: cell-based; details: for Maximum fold activity / EC50: Nurr1 activation; for Maximum fold activity: Supplementary Table 1; for Nurr1 activation (in words): Nurr1 reporter assays
T1 construct: transfected with pCMV-fNurr1, pGAL-Nurr1(LBD), pGAL-Nor1(LBD) or pGAL-Nur77(LBD) and reporter construct; expressed in transfected cells; host or cells: SK-N-BE(2)C (human neuroblastoma), N27-A (rat dopaminergic), MN9D (murine dopaminergic)
Text: Nurr1 transactivity was normalized to β-galactosidase activity.

[2] = molecular target: T2, Nurr1-LBD (Homo sapiens, UniProt P43354); assay: [3H]-CQ radioligand competition binding assay; details: Fig. 1h
Procedure: Saturation and competition assays were performed as previously described. For saturation assay, 0.2 µM of Nurr1-LBD and 125-10,000 nM of [^3H]-CQ were incubated in binding buffer (20 mM sodium acetate buffer (pH 5.2)) at 4 °C overnight. […] Assay mixtures were applied to GF/B filters (Brandel Inc.) to capture Nurr1-LBD bounded ligands. […] All graphs and IC50 values were generated using the non-linear regression program in GraphPad Prism version 8.0.2.

[3] = molecular target: T2, Nurr1-LBD; assay: TR-FRET competition assay with HCQFluo; type: binding; details: Fig. 1i
Procedure: TR-FRET assay was performed in PPI Terbium (Tb) detection buffer (PerkinElmer) and contained 0.2 µM of Nurr1-LBD, 0.5 µM of fluorescence-labeled hydroxy-CQ (HCQFluo; Proimaging) and serial concentrations of CQ, 4A7C-301 or RA (10^−4–10^6 nM). Rabbit anti-Nurr1 antibody (3 nM; prepared in our lab) and anti-rabbit IgG-Tb (1:400; Cisbio, 61PARTAF) were included in the assay solution as a donor complex. Assay solutions were loaded in a 384-well OptiPlate™ (PerkinElmer). After 2 h incubation in the dark at room temperature, the FRET signal was measured by excitation at 340 nm and emission at 520 nm for fluorescein and 495 nm for Tb using a VICTOR Nivo plate reader (PerkinElmer). Data were fit using the non-linear regression program in GraphPad Prism version 8.0.2.

[4] = Supplementary Table 1, values in µM
[5] = Supplementary Table 1, values given in nM

T2 sequence (P43354 360-595 limits assumed, species assumed): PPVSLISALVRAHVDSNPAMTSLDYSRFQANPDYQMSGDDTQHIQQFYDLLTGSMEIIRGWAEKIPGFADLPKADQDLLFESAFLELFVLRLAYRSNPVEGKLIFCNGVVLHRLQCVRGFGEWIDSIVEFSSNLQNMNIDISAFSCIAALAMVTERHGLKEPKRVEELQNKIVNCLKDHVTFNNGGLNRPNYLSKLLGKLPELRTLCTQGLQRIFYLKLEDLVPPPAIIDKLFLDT
T1 sequence (Q06219 360-595 limits assumed): as the sequence (P43354 360-595 limits assumed, species assumed) above

| SMILES | Maximum fold activity [1] | EC50 [1, 4] [µM] | EC50 [1, 5] [µM] | also measured |
| --- | --- | --- | --- | --- |
| Cc1cc(N2CCSCC2)nc(NC2CCCC(Nc3ccnc4cc(Cl)ccc34)C2)n1 (centres unmarked) [4A7C-606] | 5.72 ± 0.16 fold | 1.54 ± 0.36 |  |  |
| CCN1CCN(c2nccc(N3CCN(CCNc4ccnc5cc(Cl)ccc45)CC3)n2)CC1 [4A7C-206] | 10.71 ± 0.44 fold | 10 ± 0.76 |  |  |
| CCN1CCN(c2cc(NCCNc3ccnc4cc(Cl)ccc34)nc(N3CCN(CC)CC3)n2)CC1 [4A7C-303] | 9.50 ± 0.22 fold |  | 0.0085 ± 0.0186 | Nurr1 activation (in words) [1]: good activity |
| Cc1cc(N(CCNc2ccnc3cc(Cl)ccc23)Cc2cccs2)nc(Cl)n1 [4A7C-502] | 4.99 ± 0.86 fold |  | 0.00051 ± 6e-05 |  |
| Cc1cc(N2CCN(c3ccccc3)CC2)nc(NC2CCCC(Nc3ccnc4cc(Cl)ccc34)C2)n1 (centres unmarked) [4A7C-608] | 6.31 ± 0.82 fold | 1.14 ± 0.13 |  |  |
| CCN1CCN(c2cc(Cl)nc(NCCCNc3ccnc4cc(Cl)ccc34)n2)CC1 [4A7C-103] | 3.52 ± 0.19 fold |  | 0.6345 ± 0.00137 | Nurr1 activation (in words) [1]: diminished Nurr1 activity |
| CCN1CCN(c2cc(N3CCN(C)CC3)nc(NCCNc3ccnc4cc(Cl)ccc34)n2)CC1 [4A7C-306] | 10.01 ± 0.06 fold |  | 0.0255 ± 0.0422 | Nurr1 activation (in words) [1]: good Nurr1 activities |
| Cc1cc(N(CCNc2ccnc3cc(Cl)ccc23)Cc2ccc3c(c2)OCO3)nc(N2CCN(C)CC2)n1 [4A7C-501] | 10.51 ± 0.85 fold | 3.39 ± 0.26 |  |  |
| CC1=C(/C=C/C(C)=C/C=C/C(C)=C/C(=O)O)C(C)(C)CCC1 [RA, Retinoic acid] |  |  |  | % of Specific binding ([2]; competitor conc. 0.0001 (µM)): 87.8740% and 90.3786% and 97.0000%; % of Specific binding ([2]; competitor conc. 0.001 (µM)): 101.4488% and 96.8455% and 90.6575%; % of Specific binding ([2]; competitor conc. 0.01 (µM)): 93.0895% and 89.2521% and 94.1409%; % of Specific binding ([2]; competitor conc. 0.1 (µM)): 82.0986% and 95.6235% and 83.0156%; % of Specific binding ([2]; competitor conc. 1 (µM)): 87.3597% and 82.6821% and 79.1883%; % of Specific binding ([2]; competitor conc. 10 (µM)): 63.0000% and 75.1862% and 67.5572%; % of Specific binding ([2]; competitor conc. 100 (µM)): 42.2356% and 49.1037% and 43.9315%; % of Specific binding ([2]; competitor conc. 1000 (µM)): 32.2111% and 35.0331% and 30.1369%; % of Specific binding ([2]; competitor conc. 10000 (µM)): 18.6132% and 23.0315% and 23.7161%; % of Specific binding ([2]; competitor conc. 100000 (µM)): 12.2908% and 10.3348% and 16.3962%; % of Specific binding ([2]; competitor conc. 1000000 (µM)): 8.1147% and 11.0894% and 7.4333%; Interaction [HTRF] ([3]; 0.05 µM): 2835.2000 and 2760.8790 and 2798.0390; Interaction [HTRF] ([3]; 0.1 µM): 2218.7830 and 2060.7720 and 2139.7770; Interaction [HTRF] ([3]; 0.5 µM): 1239.9030 and 1522.7770 and 1381.3400; Interaction [HTRF] ([3]; 1 µM): 1217.7040 and 1012.7510 and 1115.2270; Interaction [HTRF] ([3]; 5 µM): 750.0158 and 977.4576 and 863.7367; Interaction [HTRF] ([3]; 10 µM): 824.6545 and 715.3943 and 770.0244; Interaction [HTRF] ([3]; 50 µM): 734.0843 and 751.1574 and 742.6208; Interaction [HTRF] ([3]; 100 µM): 637.6497 and 793.8474 and 715.7485; Interaction [HTRF] ([3]; 200 µM): 603.5579 and 705.9392 and 654.7485 |
| Clc1ccc2c(NCCN3CCN(c4ccnc(Cl)n4)CC3)ccnc2c1 [4A7C-203] | 4.22 ± 0.16 fold |  | 0.017 ± 0.00497 |  |
| Cc1cc(N2CCCC2)nc(NC2CCCC(Nc3ccnc4cc(Cl)ccc34)C2)n1 (centres unmarked) [4A7C-604] | 4.24 ± 0.45 fold | 1.03 ± 0.42 |  |  |
| Clc1ccc2c(NCCN3CCN(c4ccnc(N5CCSCC5)n4)CC3)ccnc2c1 [4A7C-204] | 4.46 ± 0.67 fold |  | 0.0337 ± 0.00034 |  |
| CCN1CCN(c2cc(Cl)nc(NCCNc3ccnc4cc(Cl)ccc34)n2)CC1 [4A7C-104] | 2.63 ± 0.58 fold |  | 0.316 ± 0.0398 | Nurr1 activation (in words) [1]: better Nurr1 EC50 than 4A7C-103 |
| Cc1cc(N2CCCCC2)nc(NC2CCCC(Nc3ccnc4cc(Cl)ccc34)C2)n1 (centres unmarked) [4A7C-609] | 4.83 ± 0.51 fold | 1.19 ± 0.61 |  |  |
| CCN1CCN(c2cc(C)nc(N(CCNc3ccnc4cc(Cl)ccc34)Cc3cccs3)n2)CC1 [4A7C-507] | 3.24 ± 0.40 fold |  | 0.0949 ± 0.00166 |  |
| Cc1cc(N2CCOCC2)nc(N(CCNc2ccnc3cc(Cl)ccc23)Cc2cccs2)n1 [4A7C-503] | 2.25 ± 0.26 fold |  | 0.00107 ± 0.00012 |  |

| SMILES | Maximum fold activity [1] | EC50 [1, 4] [µM] | EC50 [1, 5] [µM] | also measured |
| --- | --- | --- | --- | --- |
| Cc1cc(N2CCN(CCNc3ccnc4cc(Cl)ccc34)CC2)nc(N2CCCC2)n1 [4A7C-202] | 3.78 ± 0.25 fold |  | 0.00128 ± 0.00063 |  |
| Cc1cc(NC2CCCC(Nc3ccnc4cc(Cl)ccc34)C2)nc(N2CCN(c3ccccc3)CC2)n1 (centres unmarked) [4A7C-602] | 3.44 ± 0.28 fold | 3.86 ± 0.26 |  |  |
| Cc1cc(N2CCN(C)CC2)nc(NC2CCCC(Nc3ccnc4cc(Cl)ccc34)C2)n1 (centres unmarked) [4A7C-607] | 4.50 ± 1.59 fold | 2.23 ± 0.4 |  |  |
| Cc1cc(N2CCN(CCNc3ccnc4cc(Cl)ccc34)CC2)nc(N2CCN(C)CC2)n1 [4A7C-201] | 4.78 ± 0.31 fold |  | 0.0146 ± 0.00138 |  |
| CCN1CCN(c2cc(N3CCOCC3)nc(NCCNc3ccnc4cc(Cl)ccc34)n2)CC1 [4A7C-305] | 7.60 ± 0.08 fold | 1.04 |  | Nurr1 activation (in words) [1]: good Nurr1 activities |
| Cc1cc(N2CCN(C)CC2)nc(N(CCNc2ccnc3cc(Cl)ccc23)Cc2cccs2)n1 [4A7C-504] | 4.07 ± 0.53 fold |  | 0.431 ± 0.0151 |  |
| Clc1ccc2c(NCCN3CCN(c4nccc(-n5ccnc5)n4)CC3)ccnc2c1 [4A7C-509] | 3.43 ± 0.42 fold |  | 0.113 ± 0.0192 |  |
| Cc1cc(N(CCNc2ccnc3cc(Cl)ccc23)Cc2cccs2)nc(N2CCOCC2)n1 [4A7C-506] | 4.49 ± 0.43 fold |  | 0.00983 ± 0.00029 |  |
| CCN1CCN(c2nc(C)cc(NCCCNc3ccnc4cc(Cl)ccc34)n2)CC1 [4A7C-102] | 3.68 ± 0.04 fold and 3.68 fold |  | 0.143 |  |
| Cc1cc(NC2CCCC(Nc3ccnc4cc(Cl)ccc34)C2)nc(Cl)n1 (centres unmarked) [4A7C-601] | 3.81 ± 0.17 fold |  | 0.11 ± 0.0271 |  |
| Cc1cc(NC2CCCC(Nc3ccnc4cc(Cl)ccc34)C2)nc(N2CCCCC2)n1 (centres unmarked) [4A7C-603] | 6.84 ± 0.52 fold | 1.22 ± 0.02 |  |  |
| Cc1cc(N(CCNc2ccnc3cc(Cl)ccc23)Cc2cccs2)nc(N2CCCCC2)n1 [4A7C-505] | 3.65 ± 0.31 fold |  | 0.00214 ± 0.00045 |  |
| CCN1CCN(c2cc(N3CCCCC3)nc(NCCNc3ccnc4cc(Cl)ccc34)n2)CC1 [4A7C-304] | 2.16 ± 0.03 fold |  | 0.00967 ± 0.00787 | Nurr1 activation (in words) [1]: good Nurr1 activities |
| CCN1CCN(c2nc(NCCCCNc3ccnc4cc(Cl)ccc34)c3ccccc3n2)CC1 [4A7C-401] | 3.01 ± 0.13 fold |  | 0.00262 ± 0.00096 |  |
| Cc1cc(NC2CCCC(Nc3ccnc4cc(Cl)ccc34)C2)nc(N2CCOCC2)n1 (centres unmarked) [4A7C-605] | 5.71 ± 0.81 fold | 1.08 ± 0.37 |  |  |
